test: Stability assessed as nuclease resistance; type: ADME; call rule not given here

Activity | Compound
Active | Cc1cn([C@@H]2O[C@@]3(COP(=O)(O)OP(=O)(O)OP(=O)(O)O[C@H]4C[C@H](n5cc(C)c(=O)[nH]c5=O)O[C@@H]4COP(=O)(O)O[C@H]4C[C@H](n5cnc6c(=O)[nH]c(N)nc65)O[C@@H]4COP(=O)(O)O[C@H]4C[C@H](n5cnc6c(N)ncnc65)O[C@@H]4COP(=O)(O)O[C@H]4C[C@H](n5cnc6c(=O)[nH]c(N)nc65)O[C@@H]4COP(=O)(O)O[C@H]4C[C@H](n5cc(C)c(=O)[nH]c5=O)O[C@@H]4COP(=O)(O)O[C@H]4[C@@H](O)[C@H](n5cnc6c(=O)[nH]c(N)nc65)O[C@@H]4COP(=O)(O)O[C@H]4[C@@H](O)[C@H](n5cnc6c(N)ncnc65)O[C@@H]4COP(=O)(O)O[C@H]4C[C@H](n5cnc6c(=O)[nH]c(N)nc65)O[C@@H]4COP(=O)(O)O[C@H]4C[C@H](n5cc(C)c(=O)[nH]c5=O)O[C@@H]4COP(=O)(O)O[C@H]4C[C@H](n5cnc6c(N)ncnc65)O[C@@H]4COP(=O)(O)O[C@H]4C[C@H](n5cnc6c(N)ncnc65)O[C@@H]4COP(=O)(O)O[C@H]4C[C@H](n5cnc6c(=O)[nH]c(N)nc65)O[C@@H]4COP(=O)(O)O[C@H]4C[C@H](n5cc(C)c(=O)[nH]c5=O)O[C@@H]4COP(=O)(O)O[C@H]4C[C@H](n5cnc6c(=O)[nH]c(N)nc65)O[C@@H]4COP(=O)(O)O[C@H]4C[C@H](n5cnc6c(N)ncnc65)O[C@@H]4COP(=O)(O)O[C@H]4C[C@H](n5cnc6c(=O)[nH]c(N)nc65)O[C@@H]4COP(=O)(O)O[C@H]4C[C@H](n5cc(C)c(=O)[nH]c5=O)O[C@@H]4COP(=O)(O)O[C@H]4C[C@H](n5cnc6c(=O)[nH]c(N)nc65)O[C@@H]4COP(=O)(O)O[C@H]4C[C@H](n5cnc6c(N)ncnc65)O[C@@H]4COP(=O)(O)O[C@H]4C[C@H](n5cnc6c(=O)[nH]c(N)nc65)O[C@@H]4COP(=O)(O)O[C@H]4C[C@H](n5cc(C)c(=O)[nH]c5=O)O[C@@H]4COP(=O)(O)O[C@H]4C[C@H](n5cc(C)c(=O)[nH]c5=O)O[C@@H]4COP(=O)(O)O[C@H]4C[C@H](n5cnc6c(=O)[nH]c(N)nc65)O[C@@H]4COP(=O)(O)O[C@H]4C[C@H](n5ccc(N)nc5=O)O[C@@H]4COP(=O)(O)O[C@H]4C[C@H](n5cnc6c(=O)[nH]c(N)nc65)O[C@@H]4COP(=O)(O)O[C@H]4C[C@H](n5cnc6c(=O)[nH]c(N)nc65)O[C@@H]4CO)COC2[C@@H]3O)c(=O)[nH]c1=O
Active | Cc1cn([C@@H]2O[C@@]3(COP(=O)(O)OP(=O)(O)OP(=O)(O)O[C@H]4C[C@H](n5cc(C)c(=O)[nH]c5=O)O[C@@H]4COP(=O)(O)O[C@H]4C[C@H](n5cnc6c(=O)[nH]c(N)nc65)O[C@@H]4COP(=O)(O)O[C@H]4C[C@H](n5cnc6c(N)ncnc65)O[C@@H]4COP(=O)(O)O[C@H]4C[C@H](n5cnc6c(=O)[nH]c(N)nc65)O[C@@H]4COP(=O)(O)O[C@H]4C[C@H](n5cc(C)c(=O)[nH]c5=O)O[C@@H]4COP(=O)(O)O[C@H]4[C@@H](O)[C@H](n5cnc6c(=O)[nH]c(N)nc65)O[C@@H]4COP(=O)(O)O[C@H]4[C@@H](O)[C@H](n5cnc6c(N)ncnc65)O[C@@H]4COP(=O)(O)O[C@H]4C[C@H](n5cnc6c(=O)[nH]c(N)nc65)O[C@@H]4COP(=O)(O)O[C@H]4C[C@H](n5cc(C)c(=O)[nH]c5=O)O[C@@H]4COP(=O)(O)O[C@H]4C[C@H](n5cnc6c(N)ncnc65)O[C@@H]4COP(=O)(O)O[C@H]4C[C@H](n5cnc6c(N)ncnc65)O[C@@H]4COP(=O)(O)O[C@H]4C[C@H](n5cnc6c(=O)[nH]c(N)nc65)O[C@@H]4COP(=O)(O)O[C@H]4C[C@H](n5cc(C)c(=O)[nH]c5=O)O[C@@H]4COP(=O)(O)O[C@H]4C[C@H](n5cnc6c(=O)[nH]c(N)nc65)O[C@@H]4COP(=O)(O)O[C@H]4C[C@H](n5cnc6c(N)ncnc65)O[C@@H]4COP(=O)(O)O[C@H]4C[C@H](n5cnc6c(=O)[nH]c(N)nc65)O[C@@H]4COP(=O)(O)O[C@H]4C[C@H](n5cc(C)c(=O)[nH]c5=O)O[C@@H]4COP(=O)(O)O[C@H]4C[C@H](n5cnc6c(=O)[nH]c(N)nc65)O[C@@H]4COP(=O)(O)O[C@H]4C[C@H](n5cnc6c(N)ncnc65)O[C@@H]4COP(=O)(O)O[C@H]4C[C@H](n5cnc6c(=O)[nH]c(N)nc65)O[C@@H]4COP(=O)(O)O[C@H]4C[C@H](n5cc(C)c(=O)[nH]c5=O)O[C@@H]4COP(=O)(O)O[C@H]4C[C@H](n5cc(C)c(=O)[nH]c5=O)O[C@@H]4COP(=O)(O)O[C@H]4C[C@H](n5cnc6c(=O)[nH]c(N)nc65)O[C@@H]4COP(=O)(O)O[C@H]4C[C@H](n5ccc(N)nc5=O)O[C@@H]4COP(=O)(O)O[C@H]4C[C@H](n5cnc6c(=O)[nH]c(N)nc65)O[C@@H]4COP(=O)(O)O[C@H]4C[C@H](n5cnc6c(=O)[nH]c(N)nc65)O[C@@H]4CO)COCOC2[C@@H]3O)c(=O)[nH]c1=O
Active | Cc1cn([C@@H]2O[C@@]3(COP(=O)(O)OP(=O)(O)OP(=O)(O)O[C@H]4C[C@H](n5cc(C)c(=O)[nH]c5=O)O[C@@H]4COP(=O)(O)O[C@H]4C[C@H](n5cnc6c(=O)[nH]c(N)nc65)O[C@@H]4COP(=O)(O)O[C@H]4C[C@H](n5cnc6c(N)ncnc65)O[C@@H]4COP(=O)(O)O[C@H]4C[C@H](n5cnc6c(=O)[nH]c(N)nc65)O[C@@H]4COP(=O)(O)O[C@H]4C[C@H](n5cc(C)c(=O)[nH]c5=O)O[C@@H]4COP(=O)(O)O[C@H]4[C@@H](O)[C@H](n5cnc6c(=O)[nH]c(N)nc65)O[C@@H]4COP(=O)(O)O[C@H]4[C@@H](O)[C@H](n5cnc6c(N)ncnc65)O[C@@H]4COP(=O)(O)O[C@H]4C[C@H](n5cnc6c(=O)[nH]c(N)nc65)O[C@@H]4COP(=O)(O)O[C@H]4C[C@H](n5cc(C)c(=O)[nH]c5=O)O[C@@H]4COP(=O)(O)O[C@H]4C[C@H](n5cnc6c(N)ncnc65)O[C@@H]4COP(=O)(O)O[C@H]4C[C@H](n5cnc6c(N)ncnc65)O[C@@H]4COP(=O)(O)O[C@H]4C[C@H](n5cnc6c(=O)[nH]c(N)nc65)O[C@@H]4COP(=O)(O)O[C@H]4C[C@H](n5cc(C)c(=O)[nH]c5=O)O[C@@H]4COP(=O)(O)O[C@H]4C[C@H](n5cnc6c(=O)[nH]c(N)nc65)O[C@@H]4COP(=O)(O)O[C@H]4C[C@H](n5cnc6c(N)ncnc65)O[C@@H]4COP(=O)(O)O[C@H]4C[C@H](n5cnc6c(=O)[nH]c(N)nc65)O[C@@H]4COP(=O)(O)O[C@H]4C[C@H](n5cc(C)c(=O)[nH]c5=O)O[C@@H]4COP(=O)(O)O[C@H]4C[C@H](n5cnc6c(=O)[nH]c(N)nc65)O[C@@H]4COP(=O)(O)O[C@H]4C[C@H](n5cnc6c(N)ncnc65)O[C@@H]4COP(=O)(O)O[C@H]4C[C@H](n5cnc6c(=O)[nH]c(N)nc65)O[C@@H]4COP(=O)(O)O[C@H]4C[C@H](n5cc(C)c(=O)[nH]c5=O)O[C@@H]4COP(=O)(O)O[C@H]4C[C@H](n5cc(C)c(=O)[nH]c5=O)O[C@@H]4COP(=O)(O)O[C@H]4C[C@H](n5cnc6c(=O)[nH]c(N)nc65)O[C@@H]4COP(=O)(O)O[C@H]4C[C@H](n5ccc(N)nc5=O)O[C@@H]4COP(=O)(O)O[C@H]4C[C@H](n5cnc6c(=O)[nH]c(N)nc65)O[C@@H]4COP(=O)(O)O[C@H]4C[C@H](n5cnc6c(=O)[nH]c(N)nc65)O[C@@H]4CO)NCOC2[C@@H]3O)c(=O)[nH]c1=O
Active | Cc1cn([C@H]2C[C@H](OP(=O)(O)OC[C@H]3O[C@@H](n4cnc5c(=O)[nH]c(N)nc54)C[C@@H]3OP(=O)(O)OC[C@H]3O[C@@H](n4cnc5c(N)ncnc54)C[C@@H]3OP(=O)(O)OC[C@H]3O[C@@H](n4cnc5c(=O)[nH]c(N)nc54)C[C@@H]3OP(=O)(O)OC[C@H]3O[C@@H](n4cc(C)c(=O)[nH]c4=O)C[C@@H]3O)[C@@H](COP(=O)(O)O[C@H]3[C@@H](O)[C@H](n4cnc5c(=O)[nH]c(N)nc54)O[C@@H]3COP(=O)(O)O[C@H]3[C@@H](O)[C@H](n4cnc5c(N)ncnc54)O[C@@H]3COP(=O)(O)O[C@H]3C[C@H](n4cnc5c(=O)[nH]c(N)nc54)O[C@@H]3COP(=O)(O)O[C@H]3C[C@H](n4cc(C)c(=O)[nH]c4=O)O[C@@H]3COP(=O)(O)O[C@H]3C[C@H](n4cnc5c(N)ncnc54)O[C@@H]3COP(=O)(O)O[C@H]3C[C@H](n4cnc5c(N)ncnc54)O[C@@H]3COP(=O)(O)O[C@H]3C[C@H](n4cnc5c(=O)[nH]c(N)nc54)O[C@@H]3COP(=O)(O)O[C@H]3C[C@H](n4cc(C)c(=O)[nH]c4=O)O[C@@H]3COP(=O)(O)O[C@H]3C[C@H](n4cnc5c(=O)[nH]c(N)nc54)O[C@@H]3COP(=O)(O)O[C@H]3C[C@H](n4cnc5c(N)ncnc54)O[C@@H]3COP(=O)(O)O[C@H]3C[C@H](n4cnc5c(=O)[nH]c(N)nc54)O[C@@H]3COP(=O)(O)O[C@H]3C[C@H](n4cc(C)c(=O)[nH]c4=O)O[C@@H]3COP(=O)(O)O[C@H]3C[C@H](n4cnc5c(=O)[nH]c(N)nc54)O[C@@H]3COP(=O)(O)O[C@H]3C[C@H](n4cnc5c(N)ncnc54)O[C@@H]3COP(=O)(O)O[C@H]3C[C@H](n4cnc5c(=O)[nH]c(N)nc54)O[C@@H]3COP(=O)(O)O[C@H]3C[C@H](n4cc(C)c(=O)[nH]c4=O)O[C@@H]3COP(=O)(O)O[C@H]3C[C@H](n4cc(C)c(=O)[nH]c4=O)O[C@@H]3COP(=O)(O)O[C@H]3C[C@H](n4cnc5c(=O)[nH]c(N)nc54)O[C@@H]3COP(=O)(O)O[C@H]3C[C@H](n4ccc(N)nc4=O)O[C@@H]3COP(=O)(O)O[C@H]3C[C@H](n4cnc5c(=O)[nH]c(N)nc54)O[C@@H]3COP(=O)(O)O[C@H]3C[C@H](n4cnc5c(=O)[nH]c(N)nc54)O[C@@H]3CO)O2)c(=O)[nH]c1=O
